In turn, `COc1ccc(C(=O)Nc2ccccc2S(C)(=O)=O)cc1OC1CCCC1` returned a melting point of 119 to 121 °C. The figure for `O=C1CNC(=O)N1C1CCNCC1` is 214 to 217 °C; for `CCCCc1ccc(CC(N)C(=O)O)cc1` (configuration not stated) it is 218 to 223 °C; for `COc1ccc(-n2c(-c3ccccn3)nc(SC)c(C#N)c2=O)cc1` it is 246 to 253 °C. With `OCC#Cc1ccccn1` the figure was 78 to 80 °C; with `Cc1c(CC(=O)N(C)O)c2cc(OCc3nc4ccccc4s3)ccc2n1Cc1ccc(Cl)cc1`, 174 to 175 °C; with `Cc1nc2c3c(ccc2n1C)[C@@H](OCCF)[C@H](O)[C@@H](c1ccccc1)O3`, 226 °C. Regarding `CN1CCN(c2ccccc2C=C2CCN(c3ccc(Cl)c(Cl)c3)C2=O)CC1`, the melting point lay in the range of 177 to 179 °C.

Compound `COc1cc(CO)c(-n2cccc2)cc1OC` showed a melting point of 92 to 93 °C. With `O=C(c1cccnc1-c1ccncc1)N1CCC(O)(Cc2ccccc2)CC1` the figure was 150 °C. In turn, `C#CCc1cc(C(O)=S)cc(S(=O)(=O)Cl)c1Oc1ccccc1` yielded a melting point of 177 to 179 °C.

As to `Cc1cc(C(C)C)cc(C)c1CCl`, the melting point was in the range of 63 to 65 °C. With `CC1CNc2c([N+](=O)[O-])cnn2C1` (configuration not stated) the figure was 190 to 192 °C. The compound `CCOC(=O)CCCn1c(=O)[nH]c2ccccc2c1=O` returned a melting point of 133 to 135 °C. The figure for `COc1c(CN2CCNC2=C[N+](=O)[O-])cc(C)nc1[N+](=O)[O-]` is 177 to 181 °C; for `CCOC(=O)C1(c2cccs2)CC(CC)=NNC1C` (configuration not stated) it is 127 °C.

Compound `OC(CCC1CCN(Cc2ccccc2)CC1)c1ccc(N2CCCC2)cc1` (configuration not stated) gave a melting point of 93 to 95 °C.

As to `CNC(=O)c1ccccc1Nc1nc(Nc2ccc3c(c2)CCN(CC(C)(C)F)CC3)ncc1Cl`, the melting point lay in the range of 207 to 210 °C. With `CN(C)c1nc(N2CCOCC2)nc(-n2ccnc2)n1` the figure was 156 to 158 °C; with `CC(C)(C)[C@H]1Cn2c(nc3c(C4OCCO4)cccc32)-c2ccccc2O1`, 150 to 152 °C; with `O=C(CCl)Nc1nc(C(Cl)(Cl)Cl)ns1`, 146 °C.

The compound `CC(C)C(=O)O[C@H]1[C@H](C)OC(=O)[C@@H](NC(=O)OC(C)(C)C)COC(=O)[C@@H]1Cc1ccccc1` returned a melting point of 143 to 145 °C.

In turn, `O=C1N(Cc2sc(C(F)(F)F)cc2O)c2ccccc2C12COc1cc3c(cc12)OCO3` (configuration not stated) had a melting point of 225 to 227 °C.

`COC1=CC(=O)C(O)=C(CCCCCCC/C=C\CCCCCCCC2=C(O)C(=O)C(C)=C(OC)C2=O)C1=O` registered a melting point of 88 to 90 °C. On to `CC(Nc1ccc(F)c(F)c1)C(=O)O` (configuration not stated), for which the melting point amounted to 163 °C. For `C#CCCCOc1c(C)cc(-c2noc(C)n2)cc1C`, the melting point was in the range of 41.5 to 43 °C. The figure for `CCNc1nc2ccc(CCc3ncc[nH]3)cc2o1` is 204 to 206 °C. The figure for `Cn1c(=S)n(CCN2CCC(Nc3nc4ccccc4n3Cc3ccco3)CC2)c(=O)c2ccccc21` is 188 °C. The figure for `Cc1c(C(=O)NC(C)(C)CO)cccc1[N+](=O)[O-]` is 144 to 145 °C. Compound `O=C(O)c1ccc(-c2nc(-c3cccc(C(F)(F)F)c3)co2)cc1` registered a melting point of 253 to 254 °C. With `CCCCCCCCCCCCCCCCCCOc1ccc(C(=O)OC)c(O)c1` the figure was 61 to 64 °C; with `CNC1CCN(c2nncc3cc(OC)c(OC)cc23)CC1`, 194 to 196 °C; with `Cn1ncnc1-c1cc(S(C)(=O)=O)c2[nH]c(=O)ccc2c1`, 226 to 232 °C. The figure for `CCOC(=O)C1=CCC2(CC1S(=O)(=O)Nc1ccc(F)cc1Cl)OCCO2` (configuration not stated) is 120 to 122 °C. The figure for `CCN(CC)C(=O)c1cc2ccccc2c(-c2ccc(Cl)cc2)n1` is 122 °C. Compound `Cc1oc(-c2ccccc2)nc1COc1cccc(CCCC2OC(=O)NC2=O)c1` (configuration not stated) displayed a melting point of 134 to 135 °C. With `O=C(O)/C=C1\Cc2ccccc2C1=O` the figure was 201 to 203 °C.

The term melting point denotes the temperature, or range, at which the solid turns liquid.

Values taken from a melting point compilation (Tetko et al.; mined from patent text by program, amines drawn as free bases though some values may be those of a salt).
